Results published in publication PMC9004346, “Development of small cyclic peptides targeting the CK2α/β interface” (Chemical Communications (Cambridge, England), 2022).
*1 amine or outer side, *2 acyl side, *3 side chain or, on linkers, in order; H or OH if unused. Where a SMILES comes first, the peptide text is derived from it. Bridges are numbered along the chain shown (N, C = ends). [ ]: non-standard residue; d: D form. Trp(2-yl) = O=C([C@H](Cc1c([*:3])[nH]c2ccccc12)N[*:1])[*:2]; hCys = N[C@@H](CCS)C(=O)O

Assay: Serum stability test
Assay type: in vitro ADME
Conditions: 20% human serum in PBS, 37 °C, monitored over 24 h
Description: 1.6.3 Serum stability test
500 μL of PBS buffer supplemented with 20% (v/v) of human serum was allocated into an Eppendorf tube and temperature kept at 37 °C for 15 minutes before commencing the experiment. 5 µL of the peptide from 10 mM stock solution in DMSO was added. Caffeine was added as an internal standard (10 μL of a 15 mg/mL solution in MQ water). At specific intervals, 50 µL of the reaction mixture was taken and quenched with 100 µL of a 1:1 mixture of 96% Ethanol:DMSO. The suspension was spun at 13400 g for 10 minutes. 100 μL of the supernatant was analysed using C-18 HPLC with an eluting gradient 5-95% MeCN (0.05% TFA) in water (0.05% TFA) over 15 minutes (90 μL injection volume).
Percentage of intact starting peptide was monitored over 24 h (calculated as the ratio of the area of […]
the peak corresponding to the intact peptide to the area of the peak of caffeine). The experiment was […]
1 M. M. Wiedmann, Y. S. Tan, Y. Wu, S. Aibara, W. Xu, H. F. Sore, C. S. Verma, L. Itzhaki, M.
Stewart, J. D. Brenton and D. R. Spring, Angew. Chemie Int. Ed., 2017, 56, 524–529.
3 G. T. Potter, G. C. Jayson, G. J. Miller and J. M. Gardiner, J. Org. Chem., 2016, 81, 3443–3446.
4 J. Iegre, P. Brear, D. J. Baker, Y. S. Tan, E. L. Atkinson, H. F. Sore, D. H. O’ Donovan, C. S. Verma,
7 C. Puig Duran, F. Albericio Palomera, M. Gongora Benitez, M. Paradis Bas, L. Miret Casals, I. […]

With CC(=O)N[C@H]1CCSc2[nH]c3ccccc3c2C[C@@H](C(N)=O)NC(=O)[C@H](CCCCN)NC(=O)[C@H](Cc2ccccc2)NC(=O)CNC(=O)[C@H](Cc2ccc(O)cc2)NC(=O)[C@H](CC(C)C)NC(=O)[C@H](CCCNC(=N)N)NC1=O [Peptide P8C9, (hC)C9RLYGFKWC9] (Ac-[hCys]RLYGFK[Trp(2-yl)]-NH2; thioether 1-8) the “Serum stability (in words)” value was “fully stable in serum over 24 h”.
